According to ChEMBL document CHEMBL4680275, “From Seeds of Apium graveolens Linn. to a Cerebral Ischemia Medicine: The Long Journey of 3-n-Butylphthalide” (J Med Chem, 2020):

Assay: Antioxidant activity assessed as hydroxyl radical scavenging activity incubated for 60 mins in water bath by Fenton reaction-based method
Format: functional

| IC50 [mM] | SMILES |
| --- | --- |
| 2.87 | CCCCC1OC(=O)c2cc(N3N=C(C)CC3=O)ccc21 (racemic) |
| 3.57 | CC1=NN(c2ccccc2)C(=O)C1 [EDARAVONE] |
